Data from ChEMBL document CHEMBL6083206, “SLL-1A-16 suppresses proliferation and induces autophagy in non-small-cell lung cancer cells via the AKT/mTOR signaling pathway” (RSC Med Chem, 2024).
Calls of active or inactive are those of the source. No cut-off for these calls is given here.

How the values were obtained:
NCI-H460 [1] = experiment: Inhibition of Akt/mTOR signalling pathway in human NCI-H460 cells assessed as decrease in mTOR expression by Western blot analysis; format: cell-based; settings: dose 10-30 µM
NCI-H460 [2] = experiment: Inhibition of Akt/mTOR signaling pathway in human NCI-H460 cells assessed as decrease in mTOR expression in presence of temsirolimus by Western blot analysis; format: cell-based
NCI-H460 [3] = experiment: Antiproliferative activity against human NCI-H460 cells assessed as reduction in cell viability incubated for 48 hrs by CCK8 assay; format: functional, cell-based; settings: NCI-H460, 48 h
[4] = system: Gefitinib-resistant A549/G cell; experiment: Inhibition of Akt/mTOR signaling pathway in human Gefitinib-resistant A549/G cell assessed as decrease in mTOR expression in presence of gefitinib by Western blot analysis; format: cell-based
NCI-H460 [5] = experiment: Induction of apoptosis in human NCI-H460 cells assessed as upregulation of cleaved caspase 3 expression at 10 to 30 uM by Western blot analysis; format: functional, cell-based; settings: dose 10-30 µM
NCI-H460 [6] = experiment: Induction of autophagy in human NCI-H460 cells assessed as increase in fluorescence intensity of anti-LC3 incubated for 48 hrs by immunofluorescence staining based analysis; format: functional, cell-based; settings: dose 10-30 µM
A549 [7] = experiment: Induction of apoptosis in human A549 cells assessed as upregulation of Bax expression at 10 to 30 uM by Western blot analysis; format: functional, cell-based; settings: dose 10-30 µM
A549 [8] = experiment: Cell cycle arrest in human A549 cells assessed as downregulation of CDK4 expression at 10 to 30 uM by Western blot analysis; format: functional, cell-based; settings: dose 10-30 µM
NCI-H460 [9] = experiment: Induction of apoptosis in human NCI-H460 cells assessed as necrotic cells at 10 uM incubated for 24 hrs by Annexin V-FITC/PI staining based flow cytometric analysis (reference value: 0.68 %); format: functional
A549 [10] = experiment: Inhibition of Akt/mTOR signaling pathway in human A549 cells assessed as decrease in phosphorylated 4EBP1 expression in presence of temsirolimus by Western blot analysis; format: cell-based
A549 [11] = experiment: Cell cycle arrest in human A549 cells assessed as downregulation of cyclin D1 expression at 10 to 30 uM by Western blot analysis; format: functional, cell-based; settings: dose 10-30 µM
NCI-H460 [12] = experiment: Cell cycle arrest in human NCI-H460 cells assessed as downregulation of CDK4 expression at 10 to 30 uM by Western blot analysis; format: functional, cell-based; settings: dose 10-30 µM
[13] = system: Gefitinib-resistant A549/G cell; experiment: Inhibition of Akt/mTOR signaling pathway in human Gefitinib-resistant A549/G cell assessed as decrease in phosphorylated 4EBP1 expression in presence of gefitinib by Western blot analysis; format: cell-based
A549 [14] = experiment: Inhibition of Akt/mTOR signalling pathway in human A549 cells assessed as decrease in phosphorylated PRAS40 expression by Western blot analysis; format: cell-based; settings: dose 10-30 µM
[15] = system: Gefitinib-resistant A549/G cell; experiment: Antiproliferative activity against human Gefitinib-resistant A549/G cell assessed as inhibition of cell proliferation in presence of gefitinib; format: functional, cell-based
NCI-H460 [16] = experiment: Inhibition of Akt/mTOR signaling pathway in human NCI-H460 cells assessed as decrease in phosphorylated PRAS40 expression in presence of temsirolimus by Western blot analysis; format: cell-based
A549 [17] = experiment: Induction of apoptosis in human A549 cells assessed as late apoptotic cells at 30 uM incubated for 24 hrs by Annexin V-FITC/PI staining based flow cytometric analysis (reference value: 2.29 %); format: functional
A549 [18] = experiment: Inhibition of Akt/mTOR signalling pathway in human A549 cells assessed as decrease in mTOR expression by Western blot analysis; format: cell-based; settings: dose 10-30 µM
A549 [19] = experiment: Induction of apoptosis in human A549 cells assessed as early apoptotic cells at 30 uM incubated for 24 hrs by Annexin V-FITC/PI staining based flow cytometric analysis (reference value: 0.44 %); format: functional
[20] = system: Gefitinib-resistant A549/G cell; experiment: Inhibition of Akt/mTOR signaling pathway in human Gefitinib-resistant A549/G cell assessed as decrease in phosphorylated […] in presence of gefitinib by Western blot analysis; format: cell-based
NCI-H460 [21] = experiment: Induction of apoptosis in human NCI-H460 cells assessed as viable cells at 10 uM incubated for 24 hrs by Annexin V-FITC/PI staining based flow cytometric analysis (reference value: 91.95 %); format: functional; settings: read-out: Activity
A549 [22] = experiment: Antitumor activity against human A549 cells xenografted in Balb/c nude mouse assessed as reduction in tumor growth rate at 7.5 to 15 mg/kg, ip administered for 14 days; format: functional, organism-based; settings: dose 7.5-15 mg/kg, time 14.0 day
NCI-H460 [23] = experiment: Inhibition of Akt/mTOR signalling pathway in human NCI-H460 cells assessed as decrease in phosphorylated 4EBP1 expression by Western blot analysis; format: cell-based; settings: dose 10-30 µM
A549 [24] = experiment: Induction of apoptosis in human A549 cells assessed as late apoptotic cells at 10 uM incubated for 24 hrs by Annexin V-FITC/PI staining based flow cytometric analysis (reference value: 2.29 %); format: functional
A549 [25] = experiment: Induction of apoptosis in human A549 cells assessed as early apoptotic cells at 10 uM incubated for 24 hrs by Annexin V-FITC/PI staining based flow cytometric analysis (reference value: 0.44 %); format: functional
A549 [26] = experiment: Inhibition of Akt/mTOR signalling pathway in human A549 cells assessed as decrease in phosphorylated 4EBP1 expression by Western blot analysis; format: cell-based; settings: dose 10-30 µM
A549 [27] = experiment: Cell cycle arrest in human A549 cells assessed as accumulation of cells at G1 phase at 30 uM incubated for 24 hrs by PI staining based flow cytometric analysis (reference value: 56.42 +/- 1.36 %); format: functional
NCI-H460 [28] = experiment: Inhibition of colony formation in human NCI-H460 cells at 10 to 30 uM incubated for 24 hrs by giemsa staining based analysis; format: functional, cell-based; settings: dose 10-30 µM
A549 [29] = experiment: Antiproliferative activity against human A549 cells assessed as reduction in cell viability incubated for 48 hrs by CCK8 assay; format: functional, cell-based; settings: A549, 48 h
NCI-H460 [30] = experiment: Induction of apoptosis in human NCI-H460 cells assessed as upregulation of Bax expression at 10 to 30 uM by Western blot analysis; format: functional, cell-based; settings: dose 10-30 µM
NCI-H460 [31] = experiment: Induction of apoptosis in human NCI-H460 cells assessed as necrotic cells at 30 uM incubated for 24 hrs by Annexin V-FITC/PI staining based flow cytometric analysis (reference value: 0.68 %); format: functional
NCI-H460 [32] = experiment: Antiproliferative activity against human NCI-H460 cells assessed as inhibition of cell proliferation in presence of temsirolimus by CCK8 assay; format: functional, cell-based
A549 [33] = experiment: Induction of apoptosis in human A549 cells assessed as decrease in Bcl2 expression at 10 to 30 uM by Western blot analysis; format: functional, cell-based; settings: dose 10-30 µM
A549 [34] = experiment: Induction of apoptosis in human A549 cells assessed as necrotic cells at 30 uM incubated for 24 hrs by Annexin V-FITC/PI staining based flow cytometric analysis (reference value: 0.97 %); format: functional
NCI-H460 [35] = experiment: Inhibition of Akt/mTOR signalling pathway in human NCI-H460 cells assessed as decrease in phosphorylated PRAS40 expression by Western blot analysis; format: cell-based; settings: dose 10-30 µM
NCI-H460 [36] = experiment: Inhibition of Akt/mTOR signalling pathway in human NCI-H460 cells assessed as decrease in c-myc expression by Western blot analysis; format: cell-based; settings: dose 10-30 µM
BEAS-2B = experiment: Cytotoxicity against human BEAS-2B cells assessed as inhibition of cell viability at 3 to 300 uM incubated for 48 hrs by CCK8 assay; format: toxicity, cell-based; settings: dose 3-300 µM

With `N#C[Se]CCCNC(=O)c1cccnc1` the inhibition (NCI-H460 [1]) was “Dose-dependent-effect; Inhibitory Ability Of Compound Is Comparable To Temsirolimus”, the inhibition (NCI-H460 [2]) was “Active” and the IC50 (NCI-H460 [3]) was 17.4 µM. For the same molecule, the inhibition [4] was “Active”, the Activity (NCI-H460 [5]) was “Active” and the Activity (NCI-H460 [6]) was “Dose-dependent-effect”. For the same molecule, the Activity (A549 [7]) was “Active”, the Activity (A549 [8]) was “Active; G1 Phase Cell Cycle Arrest Observed” and the Activity (NCI-H460 [9]) was 3.73%. For the same molecule, the inhibition (A549 [10]) was “Active”, the Activity (A549 [11]) was “Active; G1 Phase Cell Cycle Arrest Observed” and the Activity (NCI-H460 [12]) was “Active; G1 Phase Cell Cycle Arrest Observed”. The inhibition [13] was “Active”, the inhibition (A549 [14]) was “Dose-dependent-effect; Inhibitory Ability Of Compound Is Comparable To Temsirolimus” and the Activity [15] was “Active”. For the same molecule, the inhibition (NCI-H460 [16]) was “Active”, the Activity (A549 [17]) was 14.41% and the inhibition (A549 [18]) was “Dose-dependent-effect; Inhibitory Ability Of Compound Is Comparable To Temsirolimus”. For the same molecule, the Activity (A549 [19]) was 4.58%, the inhibition [20] was “Active” and the viability at 10 µM (NCI-H460 [21]) was 81.5%. The Activity (A549 [22]) was “Active; Comparable To 25 Mg/Kg Of Gemcitabine Hydrochloride”, the inhibition (NCI-H460 [23]) was “Dose-dependent-effect; Inhibitory Ability Of Compound Is Comparable To Temsirolimus” and the Activity (A549 [24]) was 8.48%. For the same molecule, the Activity (A549 [25]) was 3.66%, the inhibition (A549 [26]) was “Dose-dependent-effect; Inhibitory Ability Of Compound Is Comparable To Temsirolimus” and the Activity (A549 [27]) was 78.51%. The inhibition (NCI-H460 [28]) was “Active”, the IC50 (A549 [29]) was 15.4 µM and the Activity (NCI-H460 [30]) was “Active”. For the same molecule, the Activity (NCI-H460 [31]) was 5.22%, the Activity (NCI-H460 [32]) was “Active” and the Activity (A549 [33]) was “Active”. The Activity (A549 [34]) was 5.12%, the inhibition (NCI-H460 [35]) was “Dose-dependent-effect; Inhibitory Ability Of Compound Is Comparable To Temsirolimus” and the inhibition (NCI-H460 [36]) was “Dose-dependent-effect; Inhibitory Ability Of Compound Is Comparable To Temsirolimus”. The Activity (BEAS-2B) was “Toxic”.
